Values of other authors, collected in patent publication US20260248129A1, “SPRAYABLE SUBSTANCES FOR PHOTOSYNTHESIS ENHANCEMENT” (Sensei Ag Holdings, Inc., priority 2023, published 2026).
Values after ≈ are worked out from the molar mass of the structure shown. Read-outs that look alike come from different tables or passages of the source.

Assays:
[1] = ethanol, methanol, hexane, ether, and a variety of other solvents
[2] = not given; remark: listed apart in the source

| water solubility (water) | SMILES | solubility in water (in words) (water) | water solubility (water at 25° C.) | solubility in organic solvents (in words) [1] | stability under light (in words) [2] |
| --- | --- | --- | --- | --- | --- |
| – | c1ccc2cc3ccccc3cc2c1 [anthracene, Anthracene] | slightly soluble | 0.044 mg/L (≈ 0.247 µM) | very soluble | does eventually degrade under light |
| 0.17 mg/100 mL | O=c1ccc2ccccc2o1 [coumarin, Coumarin] | – | – | – | – |
